US20180079752A1, “BTK INHIBITORS” (MERCK SHARP & DOHME CORP., priority 2015, published 2018)

Each compound was assayed against T1, BTK enzyme (recombinant full-length BTK, hBTK) (Homo sapiens, UniProt Q06187) (assay: Btk enzyme activity assay (LANCE TR-FRET)). Details: 60 minute compound & enzyme incubation, 50 pM hBTK, 25 μM ATP, read-out: BTK binding IC50.
T1 construct: recombinant protein from baculovirus-transfected Sf9 cells: full-length BTK, 6HIS-tag cleaved; 6HIS (cleaved yes); made in house; host or cells: baculovirus-transfected Sf9 cells
T1 sequence (Q06187 whole entry): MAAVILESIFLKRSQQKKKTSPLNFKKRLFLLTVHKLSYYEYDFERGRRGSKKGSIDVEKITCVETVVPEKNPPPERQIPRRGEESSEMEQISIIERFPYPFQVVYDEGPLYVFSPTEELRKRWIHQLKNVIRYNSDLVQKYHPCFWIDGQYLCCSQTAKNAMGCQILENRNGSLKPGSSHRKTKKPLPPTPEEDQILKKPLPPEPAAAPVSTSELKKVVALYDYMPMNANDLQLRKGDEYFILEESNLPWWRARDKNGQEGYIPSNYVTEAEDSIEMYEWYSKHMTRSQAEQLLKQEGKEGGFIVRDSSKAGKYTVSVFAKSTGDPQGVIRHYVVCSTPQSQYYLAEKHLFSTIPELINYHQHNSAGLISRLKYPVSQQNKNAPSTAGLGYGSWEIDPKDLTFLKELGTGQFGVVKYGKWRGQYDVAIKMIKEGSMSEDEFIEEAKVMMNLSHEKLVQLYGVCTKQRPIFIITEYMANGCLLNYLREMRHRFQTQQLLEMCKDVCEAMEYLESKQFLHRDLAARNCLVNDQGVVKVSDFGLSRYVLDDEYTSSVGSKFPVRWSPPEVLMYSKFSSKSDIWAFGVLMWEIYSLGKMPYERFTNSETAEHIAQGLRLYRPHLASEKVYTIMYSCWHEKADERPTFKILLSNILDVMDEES
Type: biochemical
Protocol: BTK enzymatic activity was determined with the LANCE (Lanthanide Chelate Excite) TR-FRET (Time-resolved fluorescence resonance energy transfer) assay. In this assay, the potency (IC50) of each compound was determined from an eleven point (1:3 serial dilution; final compound concentration range in assay from 1 μM to 0.017 nM) titration curve using the following outlined procedure. To each well of a black non-binding surface Corning 384-well microplate (Corning Catalog #3820), 5 nL of compound (2000 fold dilution in final assay volume of 10 μL) was dispensed, followed by the addition of 7.5 μL of 1× kinase buffer (50 mM Hepes 7.5, 10 mM MgCl2, 0.01% Brij-35, 1 mM EGTA, 0.05% BSA & 1 mM DTT) containing 5.09 pg/μL (66.67 pM) of BTK enzyme (recombinant protein from baculovirus-transfected Sf9 cells: full-length BTK, 6HIS-tag cleaved). Following a 60 minute compound & enzyme incubation, each reaction was initiated by the addition of 2.5 μL 1× kinase buffer containing 8 μM biotinylated “AS” peptide (Biotin-EQEDEPEGDYFEWLE-NH2), and 100 μM ATP. The final reaction in each well of 10 μL consists of 50 pM hBTK, 2 μM biotin-AS-peptide, and 25 μM ATP. Phosphorylation reactions were allowed to proceed for 120 minutes. Reactions were immediately quenched by the addition of 20 uL of 1× quench buffer (15 mM EDTA, 25 mM Hepes 7.3, and 0.1% Triton X-100) containing detection reagents (0.626 nM of LANCE-Eu-W1024-anti-phosphoTyrosine antibody, PerkinElmer and 86.8 nM of Streptavidin-conjugated Dylight 650, Dyomics/ThermoFisher Scientific). After 60 minutes incubation with detection reagents, reaction plates were read on a PerkinElmer EnVision plate reader using standard TR-FRET protocol. Briefly, excitation of donor molecules (Eu-chelate:anti-phospho-antibody) with a laser light source at 337 nm produces energy that can be transferred to Dylight-650 acceptor molecules if this donor:acceptor pair is within close proximity. Fluorescence intensity at both 665 nm (acceptor) and 615 nm (donor) are measured and a TR-FRET ratio calculated for each well (acceptor intensity/donor intensity). IC50 values were determined by 4 parameter robust fit of TR-FRET ratio values vs. (Log10) compound concentrations.

Row | IC50 | SMILES
1 | 1.5 nM | N#CN1CCC[C@@H](c2nc(-c3ccc(C(=O)Nc4ccccn4)cc3)c3c(N)nccn23)C1 [Example 2, 4-{8-amino-3-[(3R)-1-cyanopiperidin-3-yl]imidazo[1,5-a]pyrazin-1-yl}-N-pyridin-2-ylbenzamide]
2 | 49 nM | N#CN1CCC[C@H]1c1nc(-c2ccc(C(=O)Nc3cc(F)ccn3)cc2)c2c(N)nccn12 [Example 4, 4-{8-amino-3-[(2S)-1-cyanopyrrolidin-2-yl]imidazo[1,5-a]pyrazin-1-yl}-N-(4-fluoropyridin-2-yl)benzamide]
3 | 0.24 nM | Cc1ccnc(NC(=O)c2ccc(-c3nc([C@@H]4CCCN(C#N)C4)n4ccnc(N)c34)cc2)c1 [Example 14, 4-{8-amino-3-[(3R)-1-cyanopiperidin-3-yl]imidazo[1,5-a]pyrazin-1-yl}-N-(4-methylpyridin-2-yl)benzamide]
4 | 60.3 nM | N#CN1CCC[C@H]1c1nc(-c2ccc(C(=O)Nc3ccccn3)cc2)c2c(N)nccn12 [Example 3, 4-{8-amino-3-[(2S)-1-cyanopyrrolidin-2-yl]imidazo[1,5-a]pyrazin-1-yl}-N-pyridin-2-ylbenzamide]
5 | 371 nM | Cc1nccn2c([C@@H]3CCCN3C#N)nc(-c3ccc(C(=O)Nc4ccccn4)cc3)c12 [Example 5, 4-{3-[(2S)-1-cyanopyrrolidin-2-yl]-8-methylimidazo[1,5-a]pyrazin-1-yl}-N-pyridin-2-ylbenzamide]
6 | 0.29 nM | N#CN1CCC[C@@H](c2nc(-c3ccc(C(=O)Nc4cc(C(F)F)ccn4)cc3)c3c(N)nccn23)C1 [Example 16, 4-{8-amino-3-[(3R)-1-cyanopiperidin-3-yl]imidazo[1,5-a]pyrazin-1-yl}-N-[4-(difluoromethyl)pyridin-2-yl]benzamide]
7 | 67.6 nM | N#CN1CCC[C@H]1c1nc(-c2ccc(C(=O)Nc3cc(C4CC4)ccn3)cc2)c2c(N)nccn12 [Example 9, 4-{8-amino-3-[(2S)-1-cyanopyrrolidin-2-yl]imidazo[1,5-a]pyrazin-1-yl}-N-(4-cyclopropylpyridin-2-yl)benzamide]
8 | 3.1 nM | C[C@H]1CC[C@@H](c2nc(-c3ccc(C(=O)Nc4ccccn4)cc3)c3c(N)nccn23)CN1C#N [Example 10, 4-{8-amino-3-[(3R,6S)-1-cyano-6-methylpiperidin-3-yl]imidazo[1,5-a]pyrazin-1-yl}-N-pyridin-2-ylbenzamide]

Second part, the compound before the results:

Row | SMILES | IC50
9 | Cc1nccn2c([C@@H]3CCCN(C#N)C3)nc(-c3ccc(C(=O)Nc4cc(C5CC5)ccn4)cc3)c12 [Example 8, 4-{3-[(3R)-1-cyanopiperidin-3-yl]-8-methylimidazo[1,5-a]pyrazin-1-yl}-N-(4-cyclopropylpyridin-2-yl)benzamide] | 46.8 nM
10 | N#CN1CCOC(c2nc(-c3ccc(C(=O)Nc4cc(C(F)(F)F)ccn4)cc3)c3c(N)nccn23)C1 (centres unmarked) [Example 6, 4-[8-amino-3-(4-cyanomorpholin-2-yl)imidazo[1,5-a]pyrazin-1-yl]-N-[4-(trifluoromethyl)pyridin-2-yl]benzamide] | 3.9 nM
11 | N#CN1CCC[C@@H](c2nc(-c3ccc(C(=O)Nc4cc(C(F)(F)F)ccn4)cc3)c3c(N)nccn23)C1 [Example 1, 4-{8-amino-3-[(3R)-1-cyanopiperidin-3-yl]imidazo[1,5-a]pyrazin-1-yl}-N-[4-(trifluoromethyl)pyridin-2-yl]benzamide] | 3.6 nM
12 | COCc1cnc(N)c2c(-c3ccc(C(=O)Nc4cc(C(F)(F)F)ccn4)cc3F)nc([C@@H]3CCCN(C#N)C3)n12 [Example 18, 4-{8-amino-3-[(3R)-1-cyanopiperidin-3-yl]-5-(methoxymethyl)imidazo[1,5-a]pyrazin-1-yl}-3-fluoro-N-[4-(trifluoromethyl)pyridin-2-yl]benzamide] | 0.92 nM
13 | N#CN1CCC[C@@H](c2nc(-c3ccc(C(=O)Nc4cc(C(F)(F)F)ccn4)cc3F)c3c(N)nccn23)C1 [Example 13, 4-{8-amino-3-[(3R)-1-cyanopiperidin-3-yl]imidazo[1,5-a]pyrazin-1-yl}-3-fluoro-N-[4-(trifluoromethyl)pyridin-2-yl]benzamide] | 0.36 nM
14 | C[C@H]1CO[C@@H](c2nc(-c3ccc(C(=O)Nc4cc(C(F)(F)F)ccn4)cc3F)c3c(N)ncc(Cl)n23)CN1C#N [Example 20, 4-{8-amino-5-chloro-3-[(2R,5S)-4-cyano-5-methylmorpholin-2-yl]imidazo[1,5-a]pyrazin-1-yl}-3-fluoro-N-[4-(trifluoromethyl)pyridin-2-yl]benzamide] | 0.48 nM
15 | CCOc1cc(C(=O)Nc2cc(C(F)(F)F)ccn2)ccc1-c1nc([C@H]2CN(C#N)[C@@H](C)CO2)n2c(Cl)cnc(N)c12 [Example 21, 4-{8-amino-5-chloro-3-[(2R,5S)-4-cyano-5-methylmorpholin-2-yl]imidazo[1,5-a]pyrazin-1-yl}-3-ethoxy-N-[4-(trifluoromethyl)pyridin-2-yl]benzamide] | 1.5 nM
16 | CCOc1cc(C(=O)Nc2cc(C(F)(F)F)ccn2)ccc1-c1nc([C@@H]2CC[C@H](C)N(C#N)C2)n2c(Cl)cnc(N)c12 [Example 23, 4-{8-amino-5-chloro-3-[(3R,6S)-1-cyano-6-methylpiperidin-3-yl]imidazo[1,5-a]pyrazin-1-yl}-3-ethoxy-N-[4-(trifluoromethyl)pyridin-2-yl]benzamide] | 2.2 nM
17 | N#CN1CCC[C@@H](c2nc(-c3ccc(C(=O)Nc4cc(C(F)(F)F)ccn4)cc3)c3c(N)ncc(Cl)n23)C1 [Example 17, 4-{8-amino-5-chloro-3-[(3R)-1-cyanopiperidin-3-yl]imidazo[1,5-a]pyrazin-1-yl}-N-[4-(trifluoromethyl)pyridin-2-yl]benzamide] | 0.19 nM
18 | CCOc1cc(C(=O)Nc2cc(C(F)(F)F)ccn2)ccc1-c1nc([C@@H]2CCCN(C#N)C2)n2ccnc(N)c12 [Example 19, 4-{8-amino-3-[(3R)-1-cyanopiperidin-3-yl]imidazo[1,5-a]pyrazin-1-yl}-3-ethoxy-N-[4-(trifluoromethyl)pyridin-2-yl]benzamide] | 0.68 nM
19 | COc1cc(C(=O)Nc2cc(C(F)(F)F)ccn2)ccc1-c1nc([C@H]2CN(C#N)CCO2)n2ccnc(N)c12 [Example 22, 4-{8-amino-3-[(2R)-4-cyanomorpholin-2-yl]imidazo[1,5-a]pyrazin-1-yl}-3-methoxy-N-[4-(trifluoromethyl)pyridin-2-yl]benzamide] | 0.6 nM
20 | N#CN1CCO[C@@H](c2nc(-c3ccc(C(=O)Nc4cc(C5CC5)ccn4)cc3)c3c(N)nccn23)C1 [Example 12, 4-{8-amino-3-[(2R)-4-cyanomorpholin-2-yl]imidazo[1,5-a]pyrazin-1-yl}-N-(4-cyclopropylpyridin-2-yl)benzamide] | 1 nM
21 | COc1ccnc(NC(=O)c2ccc(-c3nc([C@@H]4CCCN(C#N)C4)n4ccnc(N)c34)cc2)c1 [Example 15, 4-{8-amino-3-[(3R)-1-cyanopiperidin-3-yl]imidazo[1,5-a]pyrazin-1-yl}-N-(4-methoxypyridin-2-yl)benzamide] | 0.41 nM
22 | N#CN1CCO[C@@H](c2nc(-c3ccc(C(=O)Nc4cc(C(F)(F)F)ccn4)cc3)c3c(N)nccn23)C1 [Example 11, 4-{8-amino-3-[(2R)-4-cyanomorpholin-2-yl]imidazo[1,5-a]pyrazin-1-yl}-N-[4-(trifluoromethyl)pyridin-2-yl]benzamide] | 0.78 nM
23 | N#CN1CCC[C@@H](c2nc(-c3ccc(C(=O)Nc4cc(C5CC5)ccn4)cc3)c3c(N)nccn23)C1 [Example 7, 4-{8-amino-3-[(3R)-1-cyanopiperidin-3-yl]imidazo[1,5-a]pyrazin-1-yl}-N-(4-cyclopropylpyridin-2-yl)benzamide] | 1.8 nM
